Data published in patent publication US5011849A, “Compounds for treating and preventing cognitive diseases and depression and methods of making same” (Hoffmann-La Roche Inc., priority 1988, dated 1991).

Columns and labels:
MAO (substrate 5-HT) = biological target: T1, MAO (substrate 5-HT) (Rattus norvegicus, UniProt P21396); test: in vitro MAO inhibition in rat brain homogenate, substrate 14C-serotonin (5-HT); assay type: biochemical; details: substrate 14C-serotonin (5-HT) 2.10^-4 Mol/l, pH 7.4, 37° C., preincubation 30 minutes, incubation 10 minutes, read-out: IC 50, 5-HT
T1 construct: 20 μl of rat brain homogenate; from tissue; host or cells: rat brain homogenate
T1 sequence (P21396 1-526): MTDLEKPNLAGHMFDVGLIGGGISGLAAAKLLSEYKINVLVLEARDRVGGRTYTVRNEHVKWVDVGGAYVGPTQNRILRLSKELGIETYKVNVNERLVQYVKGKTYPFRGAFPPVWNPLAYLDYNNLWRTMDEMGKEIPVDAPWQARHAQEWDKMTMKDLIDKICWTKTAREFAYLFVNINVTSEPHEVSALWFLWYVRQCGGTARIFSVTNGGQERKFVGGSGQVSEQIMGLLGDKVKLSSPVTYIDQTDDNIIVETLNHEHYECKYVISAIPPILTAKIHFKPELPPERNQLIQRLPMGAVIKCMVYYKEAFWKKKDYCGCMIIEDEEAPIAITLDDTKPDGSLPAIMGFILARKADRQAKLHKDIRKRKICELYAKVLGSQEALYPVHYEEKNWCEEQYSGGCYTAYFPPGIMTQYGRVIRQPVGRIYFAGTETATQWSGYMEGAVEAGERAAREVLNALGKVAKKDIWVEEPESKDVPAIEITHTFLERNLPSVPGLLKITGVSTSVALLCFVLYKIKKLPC
Description: (§1) The MAO inhibiting activity of the compounds in accordance with the invention can be determined using standard methods. Thus, the preparations to be tested were subjected to the in vitro test described hereinafter, which followed the method published by R. J. Wurtmann and J. A. Axelrod [Biochem. Pharmac. 12, 1439-1441 (1963)].
(§2) Isolated rat brains are homogenized in the ratio 1:4 (weight/volume) in 0.1 molar potassium phosphate buffer (pH 7.4). whereupon the homogenates are diluted in the ratio 1:4 (volume/volume) with the same buffer and stored at -20°. A mixture of the following composition is used for the incubation:
(§3) 100 μl of 1M phosphate buffer (pH 7.4);
(§4) 100 μl solubilizate of the substance to be tested in water or dimethyl sulfoxide;
(§5) 20 μl of rat brain homogenate; and as the substrate
(§6) 80 μl of ^14 C-serotonin (5-HT) or ^14 C-phenylethylamine (PEA), in each case 100,000 decays per minute, corresponding to a final concentration of 2.10^-4 Mol/l and, respectively, 2.10^-5 Mol/l.
(§7) Prior to the addition of the substrate a preincubation at 37° C. was effected for 30 minutes. The incubation (in the presence of the substrate) was also effected at 37° C. and lasted 10 minutes.
(§8) The reaction is stopped by the addition of 200 μl of 2N hydrochloric acid.
(§9) The deaminated product, depending on the use of 5-HT or of PEA as the substrate, is extracted by shaking for 10 minutes with 5 ml of diethyl ether or with 5 ml of n-heptane, whereupon the mixture is centrifuged, the aqueous phase is frozen in a dry-ice bath and the organic phase is poured into a counting glass.
(§10) The activity of the MAO in comparison to control homogenates (without substance to be tested) is determined on the basis of the β-counter value and the IC 50 is defined as that concentration of a substance to be tested which decreases the activity of the MAO in the substrate 5-HT or PEA to 50%.

MAO (substrate PEA) = biological target: T2, MAO (substrate PEA) (Rattus norvegicus, UniProt P19643); test: in vitro MAO inhibition in rat brain homogenate, substrate 14C-phenylethylamine (PEA); assay type: biochemical; details: substrate 14C-phenylethylamine (PEA) 2.10^-5 Mol/l, pH 7.4, 37° C., preincubation 30 minutes, incubation 10 minutes
T2 construct: 20 μl of rat brain homogenate; from tissue; host or cells: rat brain homogenate
T2 sequence (P19643 1-520): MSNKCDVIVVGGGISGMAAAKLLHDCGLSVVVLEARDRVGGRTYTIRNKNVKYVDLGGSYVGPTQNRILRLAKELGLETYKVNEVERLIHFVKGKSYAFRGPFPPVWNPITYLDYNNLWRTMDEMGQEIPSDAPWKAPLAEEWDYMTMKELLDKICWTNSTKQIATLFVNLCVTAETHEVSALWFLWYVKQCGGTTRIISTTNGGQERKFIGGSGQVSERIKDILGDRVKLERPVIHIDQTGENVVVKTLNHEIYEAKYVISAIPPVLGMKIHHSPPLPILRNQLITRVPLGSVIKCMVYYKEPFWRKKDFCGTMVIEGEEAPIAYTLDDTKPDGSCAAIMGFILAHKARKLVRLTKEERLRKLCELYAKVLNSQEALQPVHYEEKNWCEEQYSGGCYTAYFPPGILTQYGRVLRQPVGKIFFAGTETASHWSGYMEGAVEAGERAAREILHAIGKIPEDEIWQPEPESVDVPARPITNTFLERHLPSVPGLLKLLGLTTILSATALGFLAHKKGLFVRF
Description: as §1, §2, §3, §4, §5, §6, §7, §8, §9, §10

| Structure (SMILES) | IC50 (MAO (substrate 5-HT)) [nM] | IC50 (MAO (substrate PEA)) [nM] |
| --- | --- | --- |
| NCCNC(=O)c1ncoc1-c1ccco1 [5-(2-furyl)-4-oxazol, N-(2-aminoethyl)-5-(2-furyl)-4-oxazolecarboxamide] | 22 | 2000 |
| NCCNC(=O)c1ncsc1-c1cc(Cl)cc(Cl)c1 [5-(3,5-dichlorophenyl)-4-thiazol, N-(2-aminoethyl)-5-(3,5-dichlorophenyl)-4-thiazolecarboxamide] | 7 | 300 |
| NCCNC(=O)c1ncoc1-c1ccc(Cl)cc1 [5-(4-chlorophenyl)-4-oxazol, N-(2-aminoethyl)-5-(4-chlorophenyl)-4-oxazolecarboxamide] | < 10 | > 100000 |

Second part, the compound after the results:

| IC50 (MAO (substrate 5-HT)) [nM] | IC50 (MAO (substrate PEA)) [nM] | Structure (SMILES) |
| --- | --- | --- |
| 120 | 3600 | NCCNC(=O)c1ncsc1-c1ccc(F)cc1F [5-(2,4-difluorophenyl)-4-thiazol, N-(2-aminoethyl)-5-(2,4-difluorophenyl)-4-thiazolecarboxamide] |
| 40 | > 10000 | NCCNC(=O)c1ncsc1-c1ccccc1F [5-(2-fluorophenyl)-4-thiazol, N-(2-aminoethyl)-5-(2-fluorophenyl)-4-thiazolecarboxamide] |
| 20 | > 10000 | NCCNC(=O)c1ncsc1-c1cccc(F)c1 [5-(3-fluorophenyl)-4-thiazol, N-(2-aminoethyl)-5-(3-fluorophenyl)-4-thiazolecarboxamide] |
| 60 | 100000 | NCCNC(=O)c1ncsc1-c1ccc(F)cc1 [5-(4-fluorophenyl)-4-thiazol, N-(2-aminoethyl)-5-(4-fluorophenyl)-4-thiazolecarboxamide] |
| 20 | 20000 | NCCNC(=O)c1ncsc1-c1ccccc1 [5-phenyl-4-thiazol, N-(2-aminoethyl)-5-phenyl-4-thiazolecarboxamide] |
